Data reported in patent publication US20060030549A1, “Paricalcitol(zemplar) capsule controls secondary hyperparathyroidism (SHPT) in CKD stage 5 patients” (priority 2003, published 2006).

Tested on: CKD stage 5 subjects on hemodialysis (HD) or peritoneal dialysis (PD)
Assay: Double-blind, placebo-controlled, multicenter studies of paricalcitol capsule in secondary hyperparathyroidism
Type: in vivo, human
Conditions: for duration of iPTH/PTH reduction: HD and PD subjects, 12-week treatment; for AE (adverse event) profile: versus placebo group
Experimental: Paricalcitol capsule is an oral formulation of paricalcitol injection, a vitamin D analog effective in the prevention and treatment of SHPT associated with chronic renal failure. Three doubleblind, placebo-controlled, multicenter studies were conducted to evaluate the safety and efficacy of paricalcitol capsule in CKD stage 5 subjects on hemodialysis (HD) or peritoneal dialysis (PD). After a 4-8 week washout period, 225 subjects (HD: 150, PD: 75) with iPTH≧300 pg/mL, serum Ca 8.0-10.5 mg/dL and Ca×P04<65 were randomized (1:1) and treated with paricalcitol capsule or placebo 3× weekly for 12 weeks. Initial doses were based on iPTH levels at baseline (initial mcg dose=iPTH/60). Subsequent dose adjustments of 2 mcg were based on the weekly Ca, Ca×P04, and iPTH results; dose increases occurred every 2 weeks and decreases once per week.

C[C@H](/C=C/[C@H](C)C(C)(C)O)[C@H]1CC[C@H]2/C(=C/C=C3C[C@@H](O)C[C@H](O)C3)CCC[C@]12C [paricalcitol]
subjects with 2 consecutive 30 decreases in iPTH (95/105 subjects, capsule 3x weekly for 12 weeks, initial mcg dose = iPTH/60, p<0.001 vs placebo): 90% | duration of iPTH/PTH reduction: sustained throughout the treatment | duration of iPTH/PTH reduction (listed as paricalcitol capsule): sustained reduction of PTH | mean iPTH reduction (by Week 3, 3x weekly dosing): 30% | influence of subject factors on efficacy (demographics, disease severity, baseline P04, phosphate binder type): not influenced by demographics, disease severity, baseline P04 or types of phosphate binder usage | mean serum P04, maximum value (increased initially to the maximum, then decreased): 5.7 mg/dL | mean Ca (throughout 12-week treatment): under 10.0 mg/dL | AE (adverse event) profile: comparable between the groups | AE (adverse event) profile (listed as paricalcitol capsule): comparable to placebo
